# Values quoted from earlier work, collected in patent US20230345944A1, “Purified and Enhanced Hydrogen Peroxide Disinfecting Solution for the Rapid Inactivation of COVID-19 and Other Pathogens” (Alira Health Boston LLC, priority 2021, published 2023).
# Test system: bacteria
# Conditions: hydrogen peroxide on its own
smiles,measurement,value
OO [hydrogen peroxide],minimal inhibitory concentration (MIC),about 1 mM
